Structures are written as SMILES. Where a SMILES comes first, the peptide text is derived from it. Bridges are numbered along the chain shown (N, C = ends). [ ]: non-standard residue; d: D form.

For the assay, the target named is T1, recombinant human VEGF165 (Homo sapiens, UniProt P15692).
T1 sequence (P15692 27-191 isoform P15692-4): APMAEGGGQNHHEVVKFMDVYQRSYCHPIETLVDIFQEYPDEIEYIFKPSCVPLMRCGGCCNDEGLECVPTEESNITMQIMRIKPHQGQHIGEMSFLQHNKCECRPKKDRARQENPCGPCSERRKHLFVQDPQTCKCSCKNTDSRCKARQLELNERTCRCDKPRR
Description: VEGF peptide binding assay (competition ELISA, VEGF165 binding to coated VEGFR2/Fc). In outline:
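VEGFR2/Fc was coated, and peptides (0.128–10,000 nM, N-acetyl, C-amide) were preincubated with 25 ng/ml human VEGF165 and added for 1 h at RT. Bound VEGF was detected with biotinylated anti-VEGF, streptavidin-HRP and TMB at OD450. IC50 came from sigmoid dose-response fits of OD450 versus concentration.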
In general terms: An ELISA detects its analyte on a solid surface through an enzyme-linked reagent.
One may read the IC50 as the midpoint of a concentration-inhibition curve. In the case of `CC[C@H](C)[C@H](NC(=O)[C@H](CC(C)C)NC(=O)[C@H](CCCNC(=N)N)NC(=O)[C@H](CCC(=O)O)NC(=O)[C@H](Cc1ccccc1)NC(=O)[C@@H]1CSSC[C@H](NC(=O)[C@H](CC(N)=O)NC(=O)[C@@H]2CCCN2C(=O)[C@H](CCC(=O)O)NC(=O)[C@@H](NC(C)=O)C(C)C)C(=O)N[C@@H](CC(=O)O)C(=O)N[C@@H]([C@@H](C)CC)C(=O)N[C@@H](Cc2c[nH]cn2)C(=O)N[C@@H](C(C)C)C(=O)N[C@@H](CCSC)C(=O)N[C@@H](Cc2c[nH]c3ccccc23)C(=O)N[C@@H](C(C)C)C(=O)N[C@@H](Cc2c[nH]c3ccccc23)C(=O)N[C@@H](CCC(=O)O)C(=O)N1)C(=O)N[C@@H](CCCCN)C(N)=O` [Compound 57, VEPNCDIHVMWVWECFERLIK] (Ac-VEPNCDIHVMWVWECFERLIK-NH2; disulfide 5-15 (inferred)), the half-maximal inhibitory concentration (IC50) is 25.4 nM.
In the case of `CC[C@H](C)[C@@H]1NC(=O)[C@H](CC(=O)O)NC(=O)[C@@H](NC(=O)[C@H](CC(N)=O)NC(=O)[C@@H]2CCCN2C(=O)[C@H](CCC(=O)O)NC(=O)[C@@H](NC(C)=O)C(C)C)CSSC[C@@H](C(=O)N[C@@H](Cc2ccccc2)C(=O)N[C@@H](CCC(=O)O)C(=O)N[C@@H](CCCNC(=N)N)C(=O)N[C@@H](CC(C)C)C(=O)N[C@@H](Cc2ccc(O)cc2)C(=O)N[C@@H](CCCCN)C(N)=O)NC(=O)[C@H](CCC(=O)O)NC(=O)[C@H](Cc2c[nH]c3ccccc23)NC(=O)[C@H](C(C)C)NC(=O)[C@H](Cc2c[nH]c3ccccc23)NC(=O)[C@H](CCSC)NC(=O)[C@H](C(C)C)NC(=O)[C@H](Cc2c[nH]cn2)NC1=O` [Compound 58, VEPNCDIHVMWVWECFERLYK] (Ac-VEPNCDIHVMWVWECFERLYK-NH2; disulfide 5-15 (inferred)) it was 25.1 nM.
To `CC[C@H](C)[C@@H]1NC(=O)[C@H](CC(=O)O)NC(=O)[C@@H](NC(=O)[C@H](CC(N)=O)NC(=O)[C@@H]2CCCN2C(=O)[C@H](CCC(=O)O)NC(=O)[C@@H](NC(C)=O)C(C)C)CSSC[C@@H](C(=O)N[C@@H](Cc2ccccc2)C(=O)N[C@@H](CCC(=O)O)C(=O)N[C@@H](CCCNC(=N)N)C(=O)N[C@@H](CC(C)C)C(=O)N[C@@H](CCSC)C(=O)NCC(=O)N[C@@H](CC(C)C)C(=O)N[C@H](C(N)=O)[C@@H](C)O)NC(=O)[C@H](CCC(=O)O)NC(=O)[C@H](Cc2c[nH]c3ccccc23)NC(=O)[C@H](C(C)C)NC(=O)[C@H](Cc2c[nH]c3ccccc23)NC(=O)[C@H](CCSC)NC(=O)[C@H](C(C)C)NC(=O)[C@H](Cc2c[nH]cn2)NC1=O` [Compound 59, VEPNCDIHVMWVWECFERLMGLT] (Ac-VEPNCDIHVMWVWECFERLMGLT-NH2; disulfide 5-15 (inferred)) belongs 25 nM; to `CC[C@H](C)[C@@H]1NC(=O)[C@H](CC(=O)O)NC(=O)[C@@H](NC(=O)[C@H](CC(N)=O)NC(=O)[C@@H]2CCCN2C(=O)[C@H](CCC(=O)O)NC(=O)[C@@H](NC(C)=O)C(C)C)CSSC[C@@H](C(=O)N[C@@H](Cc2ccccc2)C(=O)N[C@@H](CCC(=O)O)C(=O)N[C@@H](CCCNC(=N)N)C(=O)N[C@@H](CC(C)C)C(=O)N[C@H](CC(C)C)C(=O)N[C@@H](CCCCNC(C)=O)C(N)=O)NC(=O)[C@H](CCC(=O)O)NC(=O)[C@H](Cc2c[nH]c3ccccc23)NC(=O)[C@H](C(C)C)NC(=O)[C@H](Cc2c[nH]c3ccccc23)NC(=O)[C@H](CCSC)NC(=O)[C@H](C(C)C)NC(=O)[C@H](Cc2c[nH]cn2)NC1=O` [Compound 60, V-E-P-N-C-D-I-H-V-M-W-V-W-E-C-F-E-R-L-(D-Leu)-(Kac)] (Ac-VEPNCDIHVMWVWECFERL[dL]K(Ac)-NH2; disulfide 5-15 (inferred)), 25 nM.
`CC[C@H](C)[C@@H]1NC(=O)[C@H](CC(=O)O)NC(=O)[C@@H](NC(=O)[C@H](CC(N)=O)NC(=O)[C@@H]2CCCN2C(=O)[C@H](CCC(=O)O)NC(=O)[C@@H](NC(C)=O)C(C)C)CSSC[C@@H](C(=O)N[C@@H](Cc2ccccc2)C(=O)N[C@@H](CCC(=O)O)C(=O)N[C@@H](CCCNC(=N)N)C(=O)N[C@@H](CC(C)C)C(=O)N[C@@H](Cc2ccc(O)cc2)C(=O)NCC(=O)NCC(=O)NCC(N)=O)NC(=O)[C@H](CCC(=O)O)NC(=O)[C@H](Cc2c[nH]c3ccccc23)NC(=O)[C@H](C(C)C)NC(=O)[C@H](Cc2c[nH]c3ccccc23)NC(=O)[C@H](CCSC)NC(=O)[C@H](C(C)C)NC(=O)[C@H](Cc2c[nH]cn2)NC1=O` [Compound 61, VEPNCDIHVMWVWECFERLYGGG] (Ac-VEPNCDIHVMWVWECFERLYGGG-NH2; disulfide 5-15 (inferred)): the IC50 is 23.6 nM.
In the case of `CC[C@H](C)[C@@H]1NC(=O)[C@H](CC(=O)O)NC(=O)[C@@H](NC(=O)[C@H](CC(N)=O)NC(=O)[C@@H]2CCCN2C(=O)[C@H](CCC(=O)O)NC(=O)[C@@H](NC(C)=O)C(C)C)CSSC[C@@H](C(=O)N[C@@H](Cc2ccccc2)C(=O)N[C@@H](CCC(=O)O)C(=O)N[C@@H](CCCNC(=N)N)C(=O)N[C@@H](CC(C)C)C(=O)N[C@@H](CCSC)C(=O)N[C@@H](CCCCN)C(N)=O)NC(=O)[C@H](CCC(=O)O)NC(=O)[C@H](Cc2c[nH]c3ccccc23)NC(=O)[C@H](C(C)C)NC(=O)[C@H](Cc2c[nH]c3ccccc23)NC(=O)[C@H](CCSC)NC(=O)[C@H](C(C)C)NC(=O)[C@H](Cc2c[nH]cn2)NC1=O` [Compound 62, VEPNCDIHVMWVWECFERLMK] (Ac-VEPNCDIHVMWVWECFERLMK-NH2; disulfide 5-15 (inferred)) it was 25 nM; in that of `CC[C@H](C)[C@@H]1NC(=O)[C@H](CC(=O)O)NC(=O)[C@@H](NC(=O)[C@H](CC(N)=O)NC(=O)[C@@H]2CCCN2C(=O)[C@H](CCC(=O)O)NC(=O)[C@@H](NC(C)=O)C(C)C)CSSC[C@@H](C(=O)N[C@@H](Cc2ccccc2)C(=O)N[C@@H](CCC(=O)O)C(=O)N[C@@H](CCCNC(=N)N)C(=O)N[C@@H](CC(C)C)C(=O)N[C@@H](CCSC)C(=O)N[C@@H](CCCNC(=N)N)C(=O)N[C@@H](CCC(=O)O)C(=O)N[C@@H](CC(C)C)C(N)=O)NC(=O)[C@H](CCC(=O)O)NC(=O)[C@H](Cc2c[nH]c3ccccc23)NC(=O)[C@H](C(C)C)NC(=O)[C@H](Cc2c[nH]c3ccccc23)NC(=O)[C@H](CCSC)NC(=O)[C@H](C(C)C)NC(=O)[C@H](Cc2c[nH]cn2)NC1=O` [Compound 63, VEPNCDIHVMWVWECFERLMREL] (Ac-VEPNCDIHVMWVWECFERLMREL-NH2; disulfide 5-15 (inferred)), 24 nM; in that of `CC[C@H](C)[C@@H]1NC(=O)[C@H](CC(=O)O)NC(=O)[C@@H](NC(=O)[C@H](CC(N)=O)NC(=O)[C@@H]2CCCN2C(=O)[C@H](CCC(=O)O)NC(=O)[C@@H](NC(C)=O)C(C)C)CSSC[C@@H](C(=O)N[C@@H](Cc2ccccc2)C(=O)N[C@@H](CCC(=O)O)C(=O)N[C@@H](CCCNC(=N)N)C(=O)N[C@@H](CC(C)C)C(N)=O)NC(=O)[C@H](CCC(=O)O)NC(=O)[C@H](Cc2c[nH]c3ccccc23)NC(=O)[C@H](C(C)C)NC(=O)[C@H](Cc2c[nH]c3ccccc23)NC(=O)[C@H](CCSC)NC(=O)[C@H](C(C)C)NC(=O)[C@H](Cc2c[nH]cn2)NC1=O` [Compound 64, V-E-P-N-C-D-I-H-V-M-W-V-W-E-C-F-E-R-L-] (Ac-VEPNCDIHVMWVWECFERL-NH2; disulfide 5-15 (inferred)), 24 nM.

The values above are taken from patent US8937048B2, “Anti-angiogenic compounds” (Covx Technologies Ireland, Limited, priority 2008, dated 2015).
